Assay results: patent US7790738B2, “Methods of treating and preventing AIDS using of COX-2 inhibitors” (Lauras AS, priority 2000, dated 2010)
“And” between values parts separate entries of the source, which are not always exact repeats. Equal entries are not always repeated. Where two headings read alike, the source gives them in different places.

Assays:
[1] = target: T1, COX-2 (Homo sapiens, UniProt P35354); conditions: cited from earlier work
T1 sequence (P35354 18-604): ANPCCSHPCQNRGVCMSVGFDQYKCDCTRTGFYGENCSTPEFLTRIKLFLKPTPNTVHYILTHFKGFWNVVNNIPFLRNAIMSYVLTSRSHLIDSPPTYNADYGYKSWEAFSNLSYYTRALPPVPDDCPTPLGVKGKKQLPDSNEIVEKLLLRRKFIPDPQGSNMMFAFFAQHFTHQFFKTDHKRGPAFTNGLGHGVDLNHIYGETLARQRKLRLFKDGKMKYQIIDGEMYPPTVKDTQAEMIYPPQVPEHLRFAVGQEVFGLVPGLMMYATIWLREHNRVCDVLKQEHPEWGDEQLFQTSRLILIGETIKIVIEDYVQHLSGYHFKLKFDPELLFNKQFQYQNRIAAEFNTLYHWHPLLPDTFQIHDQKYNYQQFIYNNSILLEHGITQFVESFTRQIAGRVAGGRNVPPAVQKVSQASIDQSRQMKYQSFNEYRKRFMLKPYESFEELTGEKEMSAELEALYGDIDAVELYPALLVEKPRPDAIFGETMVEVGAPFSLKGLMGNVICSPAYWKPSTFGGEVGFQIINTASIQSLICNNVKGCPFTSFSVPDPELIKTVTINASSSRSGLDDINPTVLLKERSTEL

[2] = tested on: lymph node mononuclear cells from MAIDS and control mice; assay: anti-CD3 induced T cell proliferation in mixed unsorted lymph node cells, compound added in vitro; type: cell-based, mouse
Procedure: T cell activation was accomplished by cross-ligation of anti-CD3 (mAb 2C11; 4 μg/ml). […] Cells were cultured for 72 h during which [^3H] -thymidine was included for the last 4 h;
T cell activation was accomplished by cross-ligation of anti-CD3 (mAb 2C11; 4 μg/ml). […] Cells were cultured for 72 h during which [^3H ]-thymidine was included for the last 4 h;
The optimal concentration of antibody was titrated carefully in the initial setup and parallel experiments at several different dilutions of antibody was always performed. Proliferation was analyzed by incubating cells for 72 hours during which [^3H]-thymidine (0.4 μCi) was included for the last 4 hours and collected with a cell harvester (Skatron, Sterling, Va., USA) onto glass fiber filters. Incorporated precursor was counted in a scintillation analyzer (Tri-Carb, Packard, Meriden, Conn., USA). cAMP analogs, when used, were added 30 min prior to activation by addition of anti-CD3 antibodies.

[3] = tested on: MAIDS mice; assay: in vivo treatment of MAIDS mice, anti-CD3 induced T cell proliferation assessed in lymph node cells; design: species or system mouse; conditions: for increase of T cell responses to anti-CD3 versus untreated mice: intraperitoneal in intralipid, 18 to 20 days, rofecoxib 3, celecoxib 20 mg/kg/day
Procedure: Subsequently, T cell proliferative responses were assessed in vitro in a mixed population of unsorted lymph node mononuclear cells from treated and untreated animals by [^3H]-thymidine incorporation in the absence (columns A) and presence of Rp-8-Br-cAMPS (0.5 or 1.0 mM, columns B and C, respectively). T cell activation was accomplished in all samples by cross-ligation of anti-CD3 (mAb 2C11; 4 μg/ml). Control represents T cell proliferation in uninfected mice. Mean values from triplicate determinations are shown. Cells were cultured for 72 h during which [^3H]-thymidine was included for the last 4 hours;
Subsequently, T cell proliferative responses were assessed in vitro as described for FIG. 16 but without Rp-Br-cAMPs. Control represents T cell proliferation in uninfected mice. Mean values from triplicate determinations are shown (black circles) along with 25 to 75% percentile (boxed areas) and median (line in box). Bars represent range; and
Mean values±standard error of the mean (s.e.m.) from each group are shown. […] Statistics were analysed by Mann-Whitney U test for comparison of two groups of animals and with Wilcoxon Matched Pairs Test for comparison of the same group with two different treatments.
MAIDS mice normally develop an immunoproliferation syndrome with enlarged lymph nodes and spleen.
Parenteral administration was accomplished by intraperitoneally injecting Cox-2 inhibitors formulated in intralipid.

[4] = tested on: CD3+ T cells from MAIDS and control mice; assay: TCR/CD3 stimulated proliferation of isolated T cells, [3H]-thymidine incorporation; type: cell-based, mouse
Procedure: TCR/CD3 stimulated T cell proliferation was assessed with isolated T cells from MAIDS mice (A) and uninfected control mice (B). The effect of increasing concentrations of cAMP agonist (8-CPT-cAMP) on TCR/CD3 stimulated proliferation of CD3+ T cells isolated from MAIDS (open circles, dotted line) and control mice (filled circles and solid line) was examined separately in the same experiments (C). Mean values of triplicate determinations±SD are shown. See Table 4 for summarised data (n=11). Note: Scaling differs in A and B, whereas in C the TCR/CD3 induced proliferation in the absence of cAMP agonist is normalized to 100% for both MAIDS and control T cells;
Activation was achieved by subsequent addition of monodisperse magnetic beads coated with sheep anti-mouse IgG (Dynal, cat. no. 110.02) at a cell:bead ratio of 1:1 followed by addition of anti-CD3 (clone 2C11) at a final dilution of 4 μg/ml for the experiments shown. […] 8-CPT-cAMP was from Sigma (St. Louis, Mo.) and Sp- and Rp-8-Br-cAMPS were from BioLog Life Science Company (Bremen, Germany) and were all dissolved to concentrations of 4 to 10 mM in PBS and concentrations calculated using the extinction coefficients given by the manufacturer.

[5] = tested on: CD3+ T cells from HIV infected patients; assay: proliferation of HIV patient CD3+ T cells with cAMP antagonist added in vitro; type: cell-based, human
From the text: Bars show mean values±SD from triplicate determinations.
8-CPT-cAMP was from Sigma (St. Louis, Mo.).

[6] = target: COX-1 (Cavia porcellus, UniProt H0V9X9); conditions: read-out: COX-1 IC50; guinea pig macrophage model; Engelhart et al. 1995; cited from earlier work
[7] = tested on: MAIDS mice; assay: in vivo treatment of MAIDS mice, lymphoproliferation (spleen and lymph node weight); design: species or system mouse; conditions: MAIDS mice 17 weeks post-infection, per os 7 days, 3 mg/kg/day
[8] = target: T2, COX-2 (Cavia porcellus, UniProt P70682); conditions: guinea pig macrophage model; Engelhart et al. 1995; cited from earlier work
T2 construct: NSAID's in guinea pig macrophage model; endogenous in cells; host or cells: guinea pig macrophages
T2 sequence (P70682 18-604): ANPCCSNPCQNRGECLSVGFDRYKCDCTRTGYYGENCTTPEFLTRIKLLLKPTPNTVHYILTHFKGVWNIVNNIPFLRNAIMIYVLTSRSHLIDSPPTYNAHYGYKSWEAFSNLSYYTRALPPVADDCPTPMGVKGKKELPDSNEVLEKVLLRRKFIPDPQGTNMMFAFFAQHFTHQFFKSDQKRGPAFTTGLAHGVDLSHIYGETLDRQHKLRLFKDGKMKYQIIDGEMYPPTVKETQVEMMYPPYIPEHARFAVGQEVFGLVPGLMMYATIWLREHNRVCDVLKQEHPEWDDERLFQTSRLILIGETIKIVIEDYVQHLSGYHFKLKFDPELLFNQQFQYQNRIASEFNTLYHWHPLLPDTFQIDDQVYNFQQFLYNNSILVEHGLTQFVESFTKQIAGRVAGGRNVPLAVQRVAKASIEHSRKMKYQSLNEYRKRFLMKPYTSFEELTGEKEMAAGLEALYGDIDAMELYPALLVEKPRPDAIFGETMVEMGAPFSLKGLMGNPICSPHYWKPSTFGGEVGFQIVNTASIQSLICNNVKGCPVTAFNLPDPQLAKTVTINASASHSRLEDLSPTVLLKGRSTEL

COX-1, sequence (H0V9X9 entry or part of it): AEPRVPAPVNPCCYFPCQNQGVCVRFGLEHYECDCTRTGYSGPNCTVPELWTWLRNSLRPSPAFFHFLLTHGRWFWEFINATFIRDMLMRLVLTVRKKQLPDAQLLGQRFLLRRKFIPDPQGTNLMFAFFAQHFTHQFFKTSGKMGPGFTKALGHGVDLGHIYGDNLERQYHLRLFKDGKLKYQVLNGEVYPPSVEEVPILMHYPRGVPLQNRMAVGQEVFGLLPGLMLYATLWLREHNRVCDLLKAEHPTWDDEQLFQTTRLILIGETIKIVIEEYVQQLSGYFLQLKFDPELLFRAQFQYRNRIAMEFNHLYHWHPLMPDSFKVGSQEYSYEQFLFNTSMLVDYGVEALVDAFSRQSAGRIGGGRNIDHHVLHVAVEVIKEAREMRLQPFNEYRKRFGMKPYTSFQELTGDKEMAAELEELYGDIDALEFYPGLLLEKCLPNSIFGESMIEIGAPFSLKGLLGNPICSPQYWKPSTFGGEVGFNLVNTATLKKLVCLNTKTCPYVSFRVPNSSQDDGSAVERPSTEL

In the case of `CS(=O)(=O)Nc1cc2c(cc1Sc1ccc(F)cc1F)C(=O)CC2` [L-745337], the “Ratio COX-2/WHMA-COX-1 at IC80” value ([1]; WHMA test, Warner et al.) is given as less than 0.01.
For `Cc1ccc(-c2cc(C(F)(F)F)nn2-c2ccc(S(N)(=O)=O)cc2)cc1` [celecoxib, 4-(5-(4-methylphenyl)-3-(trifluoromethyl)-1H-pyrazol-1-yl)-benzenesulfonamide], the EC50 ([2]; Mus musculus, T-cell, read-out: concentration producing half-maximal effect (ED50) on T cell proliferation) was roughly 30 nM and the “increase of T cell responses to anti-CD3 versus untreated mice” value [3] was “approximately 3 fold”.
For `Nc1ncnc2c1nc(Br)n2C1OC2COP(O)(=S)OC2C1O` (stereo not drawn) [Rp-8-Br-cAMPS, Rp-8-Bromo-cAMP-phosphorothioate], the “effect on anti-CD3 stimulated mixed lymph node cultures” value ([2]; MAIDS mice that received PBS in vivo, 0.5 mM) was “increased immune responses”, the “increase in TCR/CD3-induced proliferation” value ([4]; MAIDS T cells, higher concentrations, FIG. 5A) was “more than 4 fold” and the “Increase in proliferation by Rp-8-Br-cAMPS” value (“Increase … by Rp-8-Br-cAMPS” for short) ([4]; MAIDS mice, median, n = 11) was 2.2 fold increase. For the same compound, the “effect on TCR/CD3-induced proliferation” value ([4]; control T cells, FIG. 5B) was “no stimulation was observed”, the “Increase … by Rp-8-Br-cAMPS” value ([4]; control mice, median, n = 6) was 1.1 fold increase and the “Increase … by Rp-8-Br-cAMPS” value ([4]; individual MAIDS mice 1-11, anti-CD3 induced proliferation) was 14 fold increase and 37 fold increase (3×) and 10 fold increase and 19 fold increase (2×) and 22 fold increase and 42 fold increase and 40 fold increase and 24 fold increase. The “effect on proliferation by antagonist in vitro” value ([5]; patient 2, 1 mM) was “no effect” and the “increase in proliferation by antagonist in vitro” value ([5]; patients 1 and 3, all time points, 1 mM) was “approx. 2 fold”.
For `Cc1cnc(NC(=O)C2=C(O)c3ccccc3S(=O)(=O)N2C)s1` [Meloxicam, 4-hydroxy-2-methyl-N-(5-methyl-2-thiazolyl)-1,1-dioxide-2H-1,2-benzothiazine-3-carboxamide], the IC50 [6] is given as 5.77 nM and the “increase of T cell immune responses to anti-CD3 versus PBS-treated infected mice” value ([3]; 2.8 mg/kg/day, subcutaneous osmotic pump, 14 days, p<0.05) is given as “more than 10 fold”.
In the case of `CS(=O)(=O)Nc1ccc([N+](=O)[O-])cc1Oc1ccccc1` [nimesulide], the “Ratio COX-2/WHMA-COX-1 at IC80” value [1] is given as 0.17.
In the case of `CS(=O)(=O)c1ccc(C2=C(c3ccccc3)C(=O)OC2)cc1` [rofecoxib], the “increase of anti-CD3 induced proliferation” value ([2]; cells from MAIDS mice 17 weeks post-infection, concentration-dependent, 1.9 to 500 nM) is reported as “two- to three-fold”, the average spleen weight [7] is reported as 0.8 g and the “average weight of pooled lymph nodes” value [7] is reported as 0.3 g. For the same compound, the “Rp-8-Br-cAMPS effect on anti-CD3 induced proliferation after in vivo treatment” value ([3]; MAIDS mice treated per os one week) was “lost” and the “increase of T cell responses to anti-CD3 versus untreated mice” value [3] was “approximately two-fold”.
In the case of `CN1C(C(=O)Nc2ccccn2)=C(O)c2sccc2S1(=O)=O` [Tenoxicam], the IC50 [6] is given as 201 nM and the IC50 [8] is given as 322 nM.
